According to patent US20060094722A1 (Eisai Co., Ltd., priority 2002, published 2006):
Several values for one entry are separate records, joined by “and”; a condition that tells them apart may be missing. Equal values may be shown once. Read-outs that look alike come from different tables or passages of the source.

Legend:
[1] = system: DPPIV-intact normal male Fisher rats; test: Influences of metformin and DPPIV inhibitors (Examples 82, 119, 120, 122, 229, 267), singly or in combination, on GLP-1 level in normal rats; assay type: in vivo, rat
Description: Animals: DPPIV-Intact Normal Male Fisher Rats (Purchased from CLEA Japan, Inc.)
250 μL of blood was collected from the rat using a heparinized capillary and transferred into a centrifugation tube.

Zucker fa/fa rats [2] = conditions: for Blood glucose level at each time point (hr) after oral glucose administration / GLP-1 concentration at each time point (hr) after oral glucose administration (% of Pre) / Insulin concentration at each time point (hr) after oral glucose administration: 300 mg/kg p.o. 0.5 hour before glucose load
Description: (§1) Animals: Zucker fa/fa Rats, an Animal Model for TypeII Diabetes (Purchased from Charles River Japan, Inc.)
(§2) Each test compound was dissolved in distilled water at the doses shown in the Tables indicated below, and then administered orally at a volume of 5 mL/kg. The vehicle control group was orally administered distilled water at a volume of 5 mL/kg. […] The rats were tested for glucose tolerance on the first day of the administration series. In the test, distilled water and the test compounds were given 0.5 hour before glucose load.
For the glucose tolerance test, an unanesthetized rat was lightly cut at the caudal vein with a razor blade and bled immediately before the administration of a test compound or distilled water, and immediately before, and at 0.5, 1, 2, and 3 hours after glucose load. 250 μL of blood was collected from the rat using a heparinized capillary and transferred into a centrifugation tube. The supernatant obtained by centrifugation (at 10000 g at 4° C. for 2 minutes) was assayed for active GLP-1 level using Active GLP-1 ELISA kit (Linco). At the same time, 10 μL of blood was collected and mixed with 140 μL of a 0.6 M perchloric acid solution. The mixture was centrifuged (at 3000 g at 4° C. for 10 minutes), and the resulting supernatant was assayed for glucose using Glucose Test Wako II (Wako Pure Chemical Industries, Inc.). The level of blood glucose alone was determined at the time of measurement 3 hours after glucose load.

Zucker fa/fa rats [3] = conditions: 300 mg/kg p.o. twice daily for 14 days
Description: as §1, §2
Food intake and body weight were determined at 4:00 p.m after the 14-day administration series. Total food intake and weight gain over 14 days were determined for each experimental group.

[4] = system: DPPIV-deficient male Fisher rats; test: Influence of metformin on the level of GLP-2 in DPPIV-deficient rats; assay type: in vivo, rat; conditions: 300 mg/kg p.o.; for GLP-2 concentration at each time point (hr) after oral administration (ng/ml): listed as metformin
Description: Animals: DPPIV-Deficient Male Fisher Rats (Purchased from Charles River Japan, Inc.)
The test compound was suspended in a solution of 0.5% methyl cellulose at the dose indicated in Table 11, and then administered orally at a volume of 5 mL/kg. The vehicle control group was orally administered an aqueous solution of 0.5% methyl cellulose at a volume of 5 mL/kg.
An unanesthetized rat was lightly cut at the caudal vein with a razor blade and bled immediately before, and at 1, 3, and 5 hours after administration of a test compound or a solution of 0.5% methyl cellulose. 250 μL of blood was collected from the rat using a heparinized capillary and transferred into a centrifugation tube. The supernatant obtained by centrifugation (at 10000 g at 4° C. for 2 minutes) was assayed for GLP-2 level using GLP-2 ELISA kit (Yanaihara Institute Inc.).

[5] = system: DPPIV-deficient male Fisher rats
Description: Animals: DPPIV-deficient male Fisher rats (purchased from Charles River Japan, Inc.)
Each test compound was suspended in a solution of 0.5% methyl cellulose at the doses indicated in Table 2, and then administered orally at a volume of 5 mL/kg. The vehicle control group was orally administered a solution of 0.5% methyl cellulose at a volume of 5 mL/kg.
An unanesthetized rat was lightly cut at the caudal vein with a razor blade and bled immediately before, and at 1, 3, and 5 hours after the administration of a test compound or a solution of 0.5% methyl cellulose. 250 μL of blood was collected from the rat using a heparinized capillary and transferred into a centrifugation tube. The supernatant obtained by centrifugation (at 10000 g at 4° C. for 2 minutes) was assayed for GLP-1 level using Active GLP-1 ELISA kit (Linco).

[6] = system: DPPIV-intact normal male Fisher rats; conditions: for GLP-1 concentration at each time point (hr) after oral administration (% of Pre): 300 mg/kg p.o.
Description: Each test compound was suspended in a solution of 0.5% methyl cellulose at the doses indicated in Table 3, and then administered orally at a volume of 5 mL/kg. The vehicle control group was orally administered a solution of 0.5% methyl cellulose at a volume of 5 mL/kg.
An unanesthetized rat was lightly cut at the caudal vein with a razor blade and bled immediately before, and at 1, 3, and 5 hours after administration of a test compound or a solution of 0.5% methyl cellulose. 250 μL of blood was collected from the rat using a heparinized capillary and transferred into a centrifugation tube. The supernatant obtained by centrifugation (at 10000 g at 4° C. for 2 minutes) was assayed for GLP-1 level using Active GLP-1 ELISA kit (Linco).

BALB/c AnCrj mice = conditions: 300 mg/kg p.o. twice a day, 5-FU treatment 60 mg/kg for 3 days, mice
Description: Animals: BALB/c AnCrj Mice (Purchased from Charles River Japan, Inc.)
5-FU (purchased from Sigma) was suspended in a solution of 0.5% methyl cellulose, and then administered orally at a volume of 10 mL/kg/day (8 a.m. to 9 a.m.) for 3 days (60 mg/kg). […] The vehicle control group was orally administered a solution of 0.5% methyl cellulose at a volume of 10 mL/kg.
Mice were fasted for 18 hours following the afternoon administration on the third day of the administration series. On the following day, the mice were killed by cervical dislocation, and then the whole small intestine was excised and the wet weight was measured.

CN(C)C(=N)N=C(N)N [Metformin, metformin]
GLP-1 concentration 3 hours after oral administration (% of Pre) ([1]; 300 mg/kg p.o., 3 hours): 118.1 ± 7.5 % of Pre and 108.6 ± 2.2 % of Pre and 112.5 ± 2.4 % of Pre | level of active GLP-1 ([1]; 3 hours after administration): no increase | level of active GLP-1 during the glucose tolerance test (Zucker fa/fa rats [2]): no significant increase | level of insulin during the glucose tolerance test (Zucker fa/fa rats [2]): no significant increase | Blood glucose level at each time point (hr) after oral glucose administration (Zucker fa/fa rats [2]; 0 hr): 117.4 ± 5.5 mg/dL | GLP-1 concentration at each time point (hr) after oral glucose administration (% of Pre) (Zucker fa/fa rats [2]; 0 hr): 105.6 ± 1.7 % of Pre | Insulin concentration at each time point (hr) after oral glucose administration (Zucker fa/fa rats [2]; 0 hr): 14.0 ± 1.1 ng/mL | Blood glucose level at each time point (hr) after oral glucose administration (Zucker fa/fa rats [2]; 0.5 hr): 160.6 ± 9.7 mg/dL | GLP-1 concentration at each time point (hr) after oral glucose administration (% of Pre) (Zucker fa/fa rats [2]; 0.5 hr): 135.4 ± 7.6 % of Pre | Insulin concentration at each time point (hr) after oral glucose administration (Zucker fa/fa rats [2]; 0.5 hr): 22.9 ± 2.5 ng/mL | Blood glucose level at each time point (hr) after oral glucose administration (Zucker fa/fa rats [2]; 1 hr): 177.5 ± 10.6 mg/dL | GLP-1 concentration at each time point (hr) after oral glucose administration (% of Pre) (Zucker fa/fa rats [2]; 1 hr): 126.0 ± 8.9 % of Pre | Insulin concentration at each time point (hr) after oral glucose administration (Zucker fa/fa rats [2]; 1 hr): 21.2 ± 2.3 ng/mL | Blood glucose level at each time point (hr) after oral glucose administration (Zucker fa/fa rats [2]; 2 hr): 159.8 ± 8.6 mg/dL | GLP-1 concentration at each time point (hr) after oral glucose administration (% of Pre) (Zucker fa/fa rats [2]; 2 hr): 118.4 ± 6.5 % of Pre | Insulin concentration at each time point (hr) after oral glucose administration (Zucker fa/fa rats [2]; 2 hr): 16.9 ± 1.6 ng/mL | Blood glucose level at each time point (hr) after oral glucose administration (Zucker fa/fa rats [2]; 3 hr): 122.4 ± 3.7 mg/dL | Blood glucose level at each time point (hr) after oral glucose administration (Zucker fa/fa rats [2]; −0.5 hr): 108.9 ± 5.6 mg/dL | GLP-1 concentration at each time point (hr) after oral glucose administration (% of Pre) (Zucker fa/fa rats [2]; −0.5 hr): 100.0 ± 0.0 % of Pre | Insulin concentration at each time point (hr) after oral glucose administration (Zucker fa/fa rats [2]; −0.5 hr): 11.9 ± 1.1 ng/mL | glucose tolerance (Zucker fa/fa rats [2]; glucose tolerance test): improved | Total food intake for 14 days (Zucker fa/fa rats [3]): 495.1 ± 8.9 g | Weight gain for 14 days (Zucker fa/fa rats [3]): 64.5 ± 3.5 g | GLP-2 concentration at each time point (hr) after oral administration ([4]; 0 hr): 1.32 ± 0.02 ng/mL | GLP-2 concentration at each time point (hr) after oral administration ([4]; 1 hr): 1.65 ± 0.06 ng/mL | GLP-2 concentration at each time point (hr) after oral administration (ng/ml) ([4]; 1 hr): significantly elevated | GLP-2 concentration at each time point (hr) after oral administration ([4]; 3 hr): 2.08 ± 0.07 ng/mL | GLP-2 concentration at each time point (hr) after oral administration (ng/ml) ([4]; 3 hr): significantly elevated | GLP-2 concentration at each time point (hr) after oral administration ([4]; 5 hr): 2.15 ± 0.05 ng/mL | GLP-2 concentration at each time point (hr) after oral administration (ng/ml) ([4]; 5 hr): significantly elevated | GLP-1 concentration at each time point (hr) after oral administration (% of Pre) ([5]; 30 mg/kg p.o., 0 hr): 100 ± 0.0 % of Pre | GLP-1 concentration at each time point (hr) after oral administration (% of Pre) ([5]; 30 mg/kg p.o., 1 hr): 99.9 ± 3.7 % of Pre | GLP-1 concentration at each time point (hr) after oral administration (% of Pre) ([5]; 30 mg/kg p.o., 3 hr): 106.6 ± 5.0 % of Pre | GLP-1 concentration at each time point (hr) after oral administration (% of Pre) ([5]; 30 mg/kg p.o., 5 hr): 116.3 ± 2.7 % of Pre | GLP-1 concentration at each time point (hr) after oral administration (% of Pre) ([5]; 100 mg/kg p.o., 0 hr): 100 ± 0.0 % of Pre | GLP-1 concentration at each time point (hr) after oral administration (% of Pre) ([5]; 100 mg/kg p.o., 1 hr): 111.6 ± 7.9 % of Pre | GLP-1 concentration at each time point (hr) after oral administration (% of Pre) ([5]; 100 mg/kg p.o., 3 hr): 116.3 ± 8.2 % of Pre | GLP-1 concentration at each time point (hr) after oral administration (% of Pre) ([5]; 100 mg/kg p.o., 5 hr): 150.6 ± 7.2 % of Pre | GLP-1 concentration at each time point (hr) after oral administration (% of Pre) ([5]; 300 mg/kg p.o., 0 hr): 100 ± 0.0 % of Pre | GLP-1 concentration at each time point (hr) after oral administration (% of Pre) ([5]; 300 mg/kg p.o., 1 hr): 140.0 ± 11.5 % of Pre | GLP-1 concentration at each time point (hr) after oral administration (% of Pre) ([5]; 300 mg/kg p.o., 3 hr): 199.3 ± 32.4 % of Pre | GLP-1 concentration at each time point (hr) after oral administration (% of Pre) ([5]; 300 mg/kg p.o., 5 hr): 227.1 ± 35.5 % of Pre | GLP-1 concentration at each time point (hr) after oral administration (% of Pre) ([5]; 300 mg/kg p.o., 5 hr, listed as metformin): significantly elevated | GLP-1 concentration at each time point (hr) after oral administration (% of Pre) ([6]; 0 hr): 100 ± 0.0 % of Pre | GLP-1 concentration at each time point (hr) after oral administration (% of Pre) ([6]; 1 hr): 117 ± 9 % of Pre | GLP-1 concentration at each time point (hr) after oral administration (% of Pre) ([6]; 3 hr): 149 ± 24 % of Pre | GLP-1 concentration at each time point (hr) after oral administration (% of Pre) ([6]; 5 hr): 94 ± 10 % of Pre | level of active GLP-1 ([6]; given singly): no increase | Wet weight of small intestine (BALB/c AnCrj mice): 0.642 ± 0.017 g | Wet weight of small intestine (g) (BALB/c AnCrj mice; listed as metformin): no alteration
